From patent US20060110790A1, “Expression system for large functional proteins” (priority 2002, published 2006)

Tests used:
Type in all cases: binding
[1] = molecular target: T1, ABCR (Homo sapiens, UniProt P78363); test: 8-azido-ATP/ADP nucleotide trapping in membranes from transfected cells; conditions: 800 μM orthovanadate, 5 μM 8-azido-[α-32P]ATP, 37° C.
T1 construct: Membranes from transfected cells expressing either full-length ABCR (lanes 1 & 2) or co-expressing the N and C halves; expressed in transfected cells; host or cells: transfected cells (COS-1 or EBNA293)
Description: FIG. 7. Nucleotide trapping by ABCR and co-expressed N and C halves. A. Effect of orthovanadate on nucleotide trapping. Membranes from transfected cells were incubated with 5 μM 8-azido-[α-^32P]ATP at 37° C., washed, and tightly bound nucleotides were UV crosslinked. Lane 1, full-length ABCR; lane 2, full-length ABCR incubated with 800 μM orthovanadate; lane 3, co-expressed N and C halves; lane 4, co-expressed N- and C-halves incubated with 800 μM orthovanadate. B. Effect of temperature and retinal on nucleotide trapping. Lane 1, full-length ABCR labeled at 0° C.; lane 2, full-length ABCR labeled at 37° C.; lane 3, full-length ABCR labeled at 37° C. in the presence of 50 μM all-trans retinal; lane 4, co-expressed N and C halves labeled at 0° C.; lane 5, co-expressed N and C halves labeled at 37° C.; lane 6, co-expressed N and C halves labeled at 37° C. in the presence of 50 μM all-trans retinal.
8-Azido-ATP Trapping—Membranes were incubated with 5 μM 8-azido-[α-^32P]ATP in 50 μl of labeling buffer with or without 800 μM sodium orthovanadate for 10 min at 37° C. All-trans retinal and 50 μM DTT were added where indicated. Binding was stopped by the addition of ice-cold 20 mM Tris-HCl, pH 7.4, the membranes were collected by centrifugation and washed one more time. Samples exposed to orthovanadate were washed in the presence of 800 μM orthovanadate. […]

[2] = molecular target: T2, co-expressed N and C halves of ABCR (Homo sapiens, UniProt P78363); test: 8-azido-ATP photoaffinity labeling of membranes from transfected cells; conditions: 1 mM ATP added prior to photoaffinity labeling; 1.5 μM 8-azido-[α-32P]ATP; C-half labeled; FIG. 5A lane 4
T2 construct: The cDNAs coding for the N-half (amino acids 1-1325) and C-half (amino acids 1326-2273) of ABCR; made in house; host or cells: COS-1 cells, co-transfected
T2 sequence (P78363 1-1325): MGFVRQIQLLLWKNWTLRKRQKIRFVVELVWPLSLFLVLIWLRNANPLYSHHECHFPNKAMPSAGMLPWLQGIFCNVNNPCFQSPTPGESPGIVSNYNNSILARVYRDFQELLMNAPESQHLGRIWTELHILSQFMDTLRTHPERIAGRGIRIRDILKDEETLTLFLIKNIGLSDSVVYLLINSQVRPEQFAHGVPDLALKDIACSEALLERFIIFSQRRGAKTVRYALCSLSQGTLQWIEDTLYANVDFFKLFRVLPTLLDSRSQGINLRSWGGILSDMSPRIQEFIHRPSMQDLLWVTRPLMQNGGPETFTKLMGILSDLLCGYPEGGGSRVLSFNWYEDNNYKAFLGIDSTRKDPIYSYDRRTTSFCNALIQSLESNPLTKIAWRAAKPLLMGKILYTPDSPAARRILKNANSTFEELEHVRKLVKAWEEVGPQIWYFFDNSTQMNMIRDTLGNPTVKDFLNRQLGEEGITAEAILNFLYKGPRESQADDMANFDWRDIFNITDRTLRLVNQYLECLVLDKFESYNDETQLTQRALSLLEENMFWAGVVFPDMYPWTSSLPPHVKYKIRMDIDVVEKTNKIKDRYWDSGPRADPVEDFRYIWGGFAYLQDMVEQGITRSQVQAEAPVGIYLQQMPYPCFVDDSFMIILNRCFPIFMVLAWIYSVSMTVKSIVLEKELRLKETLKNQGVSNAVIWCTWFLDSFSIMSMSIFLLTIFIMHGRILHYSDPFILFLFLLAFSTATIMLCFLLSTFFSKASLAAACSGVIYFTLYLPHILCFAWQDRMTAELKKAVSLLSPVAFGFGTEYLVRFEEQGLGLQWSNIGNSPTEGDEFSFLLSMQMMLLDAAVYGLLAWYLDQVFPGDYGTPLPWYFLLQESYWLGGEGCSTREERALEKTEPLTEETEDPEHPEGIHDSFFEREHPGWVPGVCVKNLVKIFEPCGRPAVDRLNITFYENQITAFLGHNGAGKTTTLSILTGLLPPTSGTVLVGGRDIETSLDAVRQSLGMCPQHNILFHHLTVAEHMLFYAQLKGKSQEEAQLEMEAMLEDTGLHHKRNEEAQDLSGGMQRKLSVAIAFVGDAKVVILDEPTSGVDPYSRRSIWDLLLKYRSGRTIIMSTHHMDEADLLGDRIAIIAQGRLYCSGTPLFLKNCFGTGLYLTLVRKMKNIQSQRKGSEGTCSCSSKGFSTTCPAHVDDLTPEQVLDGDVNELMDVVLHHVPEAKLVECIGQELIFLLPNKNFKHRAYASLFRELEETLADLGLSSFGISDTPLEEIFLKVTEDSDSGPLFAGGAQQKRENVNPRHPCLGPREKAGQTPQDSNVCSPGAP
T2 sequence (P78363 1326-2273): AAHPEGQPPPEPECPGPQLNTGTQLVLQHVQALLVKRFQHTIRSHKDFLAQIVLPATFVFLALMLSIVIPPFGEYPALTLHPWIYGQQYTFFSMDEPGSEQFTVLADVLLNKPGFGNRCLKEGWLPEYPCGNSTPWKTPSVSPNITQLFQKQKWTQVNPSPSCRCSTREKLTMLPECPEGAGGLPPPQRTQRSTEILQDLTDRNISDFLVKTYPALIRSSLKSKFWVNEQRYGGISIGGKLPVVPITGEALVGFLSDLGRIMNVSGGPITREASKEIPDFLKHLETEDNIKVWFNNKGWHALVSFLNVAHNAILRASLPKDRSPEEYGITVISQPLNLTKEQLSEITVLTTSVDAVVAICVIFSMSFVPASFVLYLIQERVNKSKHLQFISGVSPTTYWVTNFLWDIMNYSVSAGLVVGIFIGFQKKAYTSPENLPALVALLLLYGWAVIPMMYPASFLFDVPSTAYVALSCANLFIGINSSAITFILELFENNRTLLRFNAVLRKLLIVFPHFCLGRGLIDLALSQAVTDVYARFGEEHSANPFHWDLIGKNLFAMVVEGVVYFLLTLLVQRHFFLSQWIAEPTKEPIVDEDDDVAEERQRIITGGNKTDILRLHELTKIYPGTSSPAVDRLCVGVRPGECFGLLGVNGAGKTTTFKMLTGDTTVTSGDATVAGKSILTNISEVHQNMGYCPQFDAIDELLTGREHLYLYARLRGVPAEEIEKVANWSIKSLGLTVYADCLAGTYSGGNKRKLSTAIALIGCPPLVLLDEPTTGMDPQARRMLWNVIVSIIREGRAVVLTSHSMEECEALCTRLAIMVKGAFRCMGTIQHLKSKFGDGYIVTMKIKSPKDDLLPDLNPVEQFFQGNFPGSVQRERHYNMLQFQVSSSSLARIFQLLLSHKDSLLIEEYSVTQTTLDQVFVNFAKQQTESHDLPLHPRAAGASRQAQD
Description: (§1) FIG. 5. Azido-ATP photoaffinity labeling of the N and C halves of ABCR. A. Membranes from transfected cells expressing either full-length ABCR (lanes 1 & 2) or co-expressing the N and C halves (lanes 3 & 4) were photoaffinity labeled with 1.5 μM 8-azido-[α-^32P]ATP in the absence or presence of 1 mM ATP. The expressed protein was isolated on a Rim3F4-Sepharose matrix prior to analysis by SDS-PAGE and phosphorimage analysis. Left panel: Coomassie blue stained gel. Right panel: Azido-ATP labeling. B. Membranes from transfected cells expressing full-length ABCR, the N-half, the C-half, or both halves (NC halves) were labeled with 8-azido-[α-^32P] and isolated as above. Similar amounts of protein were loaded in each lane of the gel as judged by staining with Coomassie brilliant blue (not shown). C. Rod outer segment membranes were incubated with (+) or without (−) trypsin and subsequently labeled with azido-[α-^32P]ATP. ABCR and the associated N and C complex were purified on a Rim3F4-Sepharose matrix. Left panel: Azido-ATP labeling of the full-length ABCR (220 kDa) and the C-half (114 kDa); N-half was not labeled. Right panel: Western blots labeled for the full-length ABCR and C-half with the Rim3F4 antibody and the N-half with the Rim5B4 antibody. […]

[3] = molecular target: full-length ABCR (Homo sapiens, UniProt P78363); test: as above; parameters: Membranes from transfected cells expressing either full-length ABCR (lanes 1 & 2); expressed in transfected cells; host or cells: transfected cells (COS-1 or EBNA293); conditions: 1 mM ATP added prior to photoaffinity labeling; 1.5 μM 8-azido-[α-32P]ATP; FIG. 5A lane 2
Description: as §1

T1 sequence (P78363 whole entry): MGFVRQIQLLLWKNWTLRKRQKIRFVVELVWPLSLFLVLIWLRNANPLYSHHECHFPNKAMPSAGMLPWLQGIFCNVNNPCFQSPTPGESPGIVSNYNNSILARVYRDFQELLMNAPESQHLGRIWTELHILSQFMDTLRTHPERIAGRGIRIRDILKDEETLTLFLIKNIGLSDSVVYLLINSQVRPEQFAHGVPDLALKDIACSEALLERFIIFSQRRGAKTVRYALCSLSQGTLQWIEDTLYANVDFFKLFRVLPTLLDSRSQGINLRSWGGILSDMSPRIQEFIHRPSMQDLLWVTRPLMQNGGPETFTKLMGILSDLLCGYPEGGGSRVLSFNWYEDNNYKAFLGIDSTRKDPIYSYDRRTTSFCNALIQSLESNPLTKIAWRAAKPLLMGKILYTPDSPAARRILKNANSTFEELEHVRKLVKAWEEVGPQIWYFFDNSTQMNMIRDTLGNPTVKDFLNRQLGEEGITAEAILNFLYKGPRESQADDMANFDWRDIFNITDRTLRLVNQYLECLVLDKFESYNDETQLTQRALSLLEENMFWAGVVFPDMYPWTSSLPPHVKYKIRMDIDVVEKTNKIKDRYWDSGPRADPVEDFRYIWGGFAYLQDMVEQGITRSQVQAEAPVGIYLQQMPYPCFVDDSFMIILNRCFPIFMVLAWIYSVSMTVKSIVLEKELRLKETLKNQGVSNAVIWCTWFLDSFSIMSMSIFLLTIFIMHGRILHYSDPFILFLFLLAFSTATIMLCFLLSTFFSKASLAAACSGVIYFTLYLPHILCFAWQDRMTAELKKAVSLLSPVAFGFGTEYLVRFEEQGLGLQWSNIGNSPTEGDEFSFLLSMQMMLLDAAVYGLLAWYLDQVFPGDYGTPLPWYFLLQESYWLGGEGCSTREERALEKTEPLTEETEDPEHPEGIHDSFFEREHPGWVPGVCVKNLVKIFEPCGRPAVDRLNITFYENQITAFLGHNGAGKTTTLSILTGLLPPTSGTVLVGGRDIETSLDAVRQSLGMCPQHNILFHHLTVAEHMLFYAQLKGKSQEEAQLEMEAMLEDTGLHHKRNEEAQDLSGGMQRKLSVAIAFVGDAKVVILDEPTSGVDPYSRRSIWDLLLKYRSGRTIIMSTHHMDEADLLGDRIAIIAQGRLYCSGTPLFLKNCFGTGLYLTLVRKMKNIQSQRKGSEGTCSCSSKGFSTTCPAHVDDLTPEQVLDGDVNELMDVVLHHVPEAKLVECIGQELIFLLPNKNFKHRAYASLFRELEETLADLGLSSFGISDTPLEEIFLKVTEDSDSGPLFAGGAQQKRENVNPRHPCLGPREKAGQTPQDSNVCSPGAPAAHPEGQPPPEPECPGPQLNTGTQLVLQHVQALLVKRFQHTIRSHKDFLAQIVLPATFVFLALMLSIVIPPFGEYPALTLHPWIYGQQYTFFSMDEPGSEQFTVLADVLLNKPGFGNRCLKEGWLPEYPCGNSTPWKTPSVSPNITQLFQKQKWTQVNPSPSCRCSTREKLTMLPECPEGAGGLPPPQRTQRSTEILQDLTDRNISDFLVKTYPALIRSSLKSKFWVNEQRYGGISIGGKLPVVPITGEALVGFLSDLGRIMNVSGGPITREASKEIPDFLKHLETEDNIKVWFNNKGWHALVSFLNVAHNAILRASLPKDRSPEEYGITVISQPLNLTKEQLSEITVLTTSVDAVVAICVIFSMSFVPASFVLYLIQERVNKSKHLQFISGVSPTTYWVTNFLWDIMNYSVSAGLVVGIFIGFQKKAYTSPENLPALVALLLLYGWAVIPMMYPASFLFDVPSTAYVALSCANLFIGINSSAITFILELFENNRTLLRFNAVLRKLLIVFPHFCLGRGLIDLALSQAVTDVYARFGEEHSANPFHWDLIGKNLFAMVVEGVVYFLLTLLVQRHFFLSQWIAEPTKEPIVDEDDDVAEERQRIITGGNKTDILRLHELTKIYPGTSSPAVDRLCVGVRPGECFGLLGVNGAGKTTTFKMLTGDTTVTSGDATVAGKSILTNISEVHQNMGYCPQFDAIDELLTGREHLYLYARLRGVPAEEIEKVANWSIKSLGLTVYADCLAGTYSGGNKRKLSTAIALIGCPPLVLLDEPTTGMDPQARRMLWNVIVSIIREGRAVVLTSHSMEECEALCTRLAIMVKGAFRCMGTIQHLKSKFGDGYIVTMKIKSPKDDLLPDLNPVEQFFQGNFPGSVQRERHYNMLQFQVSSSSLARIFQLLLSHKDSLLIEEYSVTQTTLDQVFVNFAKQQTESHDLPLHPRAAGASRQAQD
Chain of full-length ABCR (P78363 whole entry): as above

| Compound | effect on 8-azido ATP/ADP trapping [1] | effect on 8-azido-ATP labeling [2] | effect on 8-azido-ATP labeling [3] |
| --- | --- | --- | --- |
| [Na+].[Na+].[Na+].[O]=[V]([O-])([O-])[O-] [sodium orthovanadate] | not dependent | – | – |
| Nc1ncnc2c1ncn2[C@@H]1O[C@H](COP(=O)(O)OP(=O)(O)OP(=O)(O)O)[C@@H](O)[C@H]1O [ATP] | – | essentially abolished | essentially abolished |
